These results are taken from US6375999B1, “Methods for treating potatoes” (priority 1993, dated 2002).

In one data set the test system is freshly dug potatoes. Nature of the data set: outdoor pile of injured, freshly dug potatoes sprayed with pure 1,4-dimethyl naphthalene. The class given is in vivo, potato. The settings on record: outdoors, humidity about 40%, no control sample. An excerpt:
A pile of freshly dug potatoes having considerable injuries such as cuts, scrapes and abrasions were sprayed with pure 1,4-dimethyl naphthalene. The pile was located outdoors with a humidity condition of about 40%. […] Although a control sample wasn't used, potatoes with such a large quantity of cuts, abrasions and the like in an exposed, low humidity environment would typically show minimal healing and a considerable amount of rot.

Data set [1] has as its system stored potatoes. Nature of the data set: low humidity storage after early treatment with 1,4-DMN. The settings on record: storage conditions of 85%, and less. In kind it is in vivo, potato. The text has this: No approved method exists for treating silver scruff. Effective fungicides are not approved for treatment of potatoes. […] A disadvantage of low humidity storage is that such potatoes dehydrate and soften. This causes the potatoes to be less acceptable for certain markets and results in some loss of product.

Data set [2] relates to potatoes which have started to sprout. Nature of the data set: treatment of potatoes which have started to sprout. The settings on record: certain types of potatoes which have started to sprout. In kind it is in vivo, potato. The text has this: For example, in treating a potato storage facility with liquid sprout inhibitor such as an isomer of DMN, especially the 1,4 and 1,6 isomers of DMN, it is only necessary to have a very low concentration of DMN in the atmosphere inasmuch as the quantity of DMN in a potato is very low so that only very minor quantities of DMN respire or exit the potato. Thus, only a very low partial pressure for DMN is created in a static air space surrounding a potato by respiration. The purpose of DMN in the atmosphere surrounding potatoes is to stop or reduce the exiting of DMN from the potato. Once DMN exiting starts, it is believed that such departure initiates the process which leads to sprouting. […] Thus, in applying liquid sprout inhibitors which are found natively in potatoes it is generally preferred to initiate treatment prior to the onset of sprouting and preferably prior to any considerable exiting of DMN, for example, from the stored potato.
Although, as indicated in the Plant patent, CIPC is not applied until after suberization (wound healing). DMN is preferably applied initially shortly after the potatoes have been put into the facility. […] Also, unlike CIPC, DMN is not a foreign material to a potato.

Data set [3] deals with stored potatoes. Conditions: early application to stored potatoes; cited from earlier work.

Take `Cc1ccc(C)c2ccccc12` [1,4-dimethyl naphthalene]: the “evidence of rot in injured potatoes” value with freshly dug potatoes (about two days after spraying) is reported as “only a small portion of the injured potatoes showing any evidence of rot”. Further, in the data set on freshly dug potatoes (pure compound sprayed), the “time after spraying until suberization processes appeared to be complete” value is “two”. For the same molecule, the “hydration and firmness of potatoes in low humidity storage” value with stored potatoes [1] was “stay hydrated and firm”.
With `CC(C)OC(=O)Nc1cccc(Cl)c1` [CIPC, Chloroisopropyl-N-carbamate], the “effect on sprouting once sprouting has been initiated” value in data set [2] is “generally retard potato sprouting even after sprouting has been initiated”. For the same molecule, the effect on suberization entry with stored potatoes [3] was “tends to retard suberization”.
